Measurements: PubChem BioAssay AID250 (DTP/NCI, 2004)
Where “and” joins values, the source holds several entries; their conditions need not be identical. Equal values may be shown once. Inconclusive results and toxic doses are left out.

Test system: BDF1 mice, L1210 leukemia sc, survival T/C
Assay: NCI In Vivo Anticancer Drug Screen. Data for tumor model L1210 Leukemia (subcutaneous) in B6D2F1 (BDF1) mice
Conditions: higher = longer survival
Outline: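 Antitumor activity is assessed in mice with transplanted tumors by comparing the treated group (T) with the vehicle control group (C).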

SMILES: c1ccc(CNc2ncnc3[nH]ncc23)cc1
- T/C (endpoint: median survival time, dose: 23.3 mg/kg/injection, schedule: Q01DX Z (sc), vehicle: methylcellulose (MC)): 115 % of control
- T/C (endpoint: median survival time, dose: 64.8 mg/kg/injection, schedule: Q01DX Z (sc), vehicle: methylcellulose (MC)): 120 % of control
- T/C (endpoint: median survival time, dose: 108.0 mg/kg/injection, schedule: Q01DX Z (sc), vehicle: methylcellulose (MC)): 110 % of control
- T/C (endpoint: median survival time, dose: 180.0 mg/kg/injection, schedule: Q01DX Z (sc), vehicle: methylcellulose (MC)): 110 % of control
- T/C (endpoint: median survival time, dose: 300.0 mg/kg/injection, schedule: Q01DX Z (sc), vehicle: methylcellulose (MC)): 100 % of control
- T/C (endpoint: median survival time, dose: 500.0 mg/kg/injection, schedule: Q01DX Z (sc), vehicle: methylcellulose (MC)): 100 % of control

SMILES: Nc1ccc(S(=O)(=O)Nc2ccc(Nc3c4ccccc4nc4ccccc34)cc2)cc1
- T/C (endpoint: median survival time, dose: 1.5 mg/kg/injection, schedule: Q01DX009 (ip), vehicle: saline with Tween-80): 100 % of control
- T/C (endpoint: median survival time, dose: 3.0 mg/kg/injection, schedule: Q01DX009 (ip), vehicle: saline with Tween-80): 112 % of control
- T/C (endpoint: median survival time, dose: 6.0 mg/kg/injection, schedule: Q01DX009 (ip), vehicle: saline with Tween-80): 112 % of control
- T/C (endpoint: median survival time, dose: 12.0 mg/kg/injection, schedule: Q01DX009 (ip), vehicle: saline with Tween-80): 112 % of control

SMILES: CCCCCCC(=O)O[C@H]1CC[C@H]2[C@@H]3CCC4=CC(=O)CC[C@]4(C)[C@H]3CC[C@]12C
- T/C (endpoint: median survival time, dose: 5.0 mg/kg/injection, schedule: Q01DX009 (ip), vehicle: other): 101 % of control
- T/C (endpoint: median survival time, dose: 5.0 mg/kg/injection, schedule: Q01DX009 (sc), vehicle: other): 102 % of control and 105 % of control
- T/C (endpoint: median survival time, dose: 10.0 mg/kg/injection, schedule: Q01DX009 (ip), vehicle: other): 102 % of control
- T/C (endpoint: median survival time, dose: 10.0 mg/kg/injection, schedule: Q01DX009 (sc), vehicle: other): 100 % of control and 104 % of control
- T/C (endpoint: median survival time, dose: 20.0 mg/kg/injection, schedule: Q01DX009 (ip), vehicle: other): 98 % of control
- T/C (endpoint: median survival time, dose: 20.0 mg/kg/injection, schedule: Q01DX009 (sc), vehicle: other): 104 % of control and 105 % of control
- T/C (endpoint: median survival time, dose: 40.0 mg/kg/injection, schedule: Q01DX009 (ip), vehicle: other): 104 % of control
- T/C (endpoint: median survival time, dose: 40.0 mg/kg/injection, schedule: Q01DX009 (sc), vehicle: other): 101 % of control and 103 % of control
- T/C (endpoint: median survival time, dose: 80.0 mg/kg/injection, schedule: Q01DX009 (ip), vehicle: other): 97 % of control and 98 % of control
- T/C (endpoint: median survival time, dose: 160.0 mg/kg/injection, schedule: Q01DX009 (ip), vehicle: other): 94 % of control and 98 % of control
- T/C (endpoint: median survival time, dose: 320.0 mg/kg/injection, schedule: Q01DX009 (sc), vehicle: other): 88 % of control and 104 % of control
- T/C (endpoint: median survival time, dose: 640.0 mg/kg/injection, schedule: Q01DX009 (sc), vehicle: other): 95 % of control and 100 % of control

SMILES: CN(Cc1cnc2nc(N[Si](C)(C)C)nc(N[Si](C)(C)C)c2n1)c1ccc(C(=O)NC(CCC(=O)O[Si](C)(C)C)C(=O)O[Si](C)(C)C)cc1 (centres undefined)
- T/C (endpoint: mean survival time, dose: 1.0 mg/kg/injection, schedule: Q01DX009 (ip), vehicle: Klucel (hydroxypropylcellulose) (HPC)): 150 % of control
- T/C (endpoint: mean survival time, dose: 2.0 mg/kg/injection, schedule: Q01DX009 (ip), vehicle: Klucel (hydroxypropylcellulose) (HPC)): 169 % of control
- T/C (endpoint: mean survival time, dose: 4.0 mg/kg/injection, schedule: Q01DX009 (ip), vehicle: Klucel (hydroxypropylcellulose) (HPC)): 176 % of control
- T/C (endpoint: mean survival time, dose: 8.0 mg/kg/injection, schedule: Q01DX009 (ip), vehicle: Klucel (hydroxypropylcellulose) (HPC)): 169 % of control
- T/C (endpoint: mean survival time, dose: 8.0 mg/kg/injection, schedule: Q04DX003 (ip), vehicle: Klucel (hydroxypropylcellulose) (HPC)): 156 % of control
- T/C (endpoint: mean survival time, dose: 16.0 mg/kg/injection, schedule: Q01DX009 (ip), vehicle: Klucel (hydroxypropylcellulose) (HPC)): 119 % of control
- T/C (endpoint: mean survival time, dose: 32.0 mg/kg/injection, schedule: Q04DX003 (ip), vehicle: Klucel (hydroxypropylcellulose) (HPC)): 160 % of control
- T/C (endpoint: mean survival time, dose: 64.0 mg/kg/injection, schedule: Q04DX003 (ip), vehicle: Klucel (hydroxypropylcellulose) (HPC)): 160 % of control

SMILES: Nc1nc(N)c2nc(CN(CCO)c3ccc(C(=O)NC(CCC(=O)O)C(=O)O)cc3)cnc2n1 (centres undefined)
- T/C (endpoint: mean survival time, dose: 2.0 mg/kg/injection, schedule: Q01DX009 (ip), vehicle: sodium bicarbonate): 160 % of control
- T/C (endpoint: mean survival time, dose: 4.0 mg/kg/injection, schedule: Q01DX009 (ip), vehicle: sodium bicarbonate): 160 % of control
- T/C (endpoint: mean survival time, dose: 8.0 mg/kg/injection, schedule: Q01DX009 (ip), vehicle: sodium bicarbonate): 191 % of control
- T/C (endpoint: mean survival time, dose: 8.0 mg/kg/injection, schedule: Q04DX003 (ip), vehicle: sodium bicarbonate): 123 % of control
- T/C (endpoint: mean survival time, dose: 16.0 mg/kg/injection, schedule: Q01DX009 (ip), vehicle: sodium bicarbonate): 154 % of control

SMILES: CS(=O)(=O)Nc1ccc(Nc2c3ccccc3nc3ccccc23)cc1
- T/C (endpoint: mean survival time, dose: 10.0 mg/kg/injection, schedule: Q01DX009 (ip), vehicle: saline): 96 % of control
- T/C (endpoint: mean survival time, dose: 20.0 mg/kg/injection, schedule: Q01DX009 (ip), vehicle: saline): 103 % of control
- T/C (endpoint: mean survival time, dose: 40.0 mg/kg/injection, schedule: Q01DX009 (ip), vehicle: saline): 111 % of control
- T/C (endpoint: mean survival time, dose: 80.0 mg/kg/injection, schedule: Q01DX009 (ip), vehicle: saline): 90 % of control
